In US7226949B2, “Compounds of use in the treatment of epilepsy, seizure, and electroconvulsive disorders” (University of Kentucky, priority 2002, dated 2007):

Assays:
[1] = system: MES-induced seizure; assay: Maximal Electroshock Seizure (MES) test in mice, intraperitoneal administration; assay type: in vivo
Source text: (§1) The Maximal Electroshock Seizure (MES) or Maximal Seizure Pattern Test
(§2) The MES is an experimental model for generalized tonic-clonic seizures that identifies compounds that prevent seizure spread. The MES model is highly reproducible and has a consistent endpoint. An advantage of this model is that the behavioral and electrographic seizures are consistent with those observed in humans.
(§3) In the MES test, the animal receives an electrical stimulus, 0.2 seconds in duration, via corneal electrodes primed with an electrolyte solution containing an anesthetic agent. The 0.2 second stimulation is generated with 150 mA in rats and 50 mA in mice at 60 Hz. […] In rats, the compound is administered orally, while mice receive the agent via intraperitoneal injection. The test endpoint, electrogenic seizure, is manifested as hindlimb tonic extension.

[2] = system: MES-induced seizure; assay: Maximal Electroshock Seizure (MES) test in rats, oral administration; assay type: in vivo; conditions: for Percentage of rats in which the test compound prevented MES-induced seizure: 30 mg/kg oral
Source text: as §1, §2, §3
A full dose-response curve was also generated in rats to determine the ED50 value (n=8 at each time point). […] The ED50 of 4,4′-thiodianiline was evaluated in both rats and mice.

[3] = system: 6 Hz seizures; assay: 6 Hz kindling model; assay type: in vivo, mice
Description: The 6 Hz kindling model is another experimental seizure model that effectively detects compounds with anti-seizure activity. This screen is used to evaluate the ability of a compound to prevent the acquisition of focal seizures; in particular, the capacity of a compound to prevent the development of seizures induced by a low-frequency (6 Hz), long duration (three seconds) stimulus in electrode […] is evaluated. Several of the most promising compounds were evaluated in this screen to further characterize their anti-seizure activity.
In the 6 Hz kindling test, mice are implanted with corneal electrodes. The test compound is administered (i.p.) to the animal at 0.25, 0.5, 1, 2, or 4 hours prior seizure induction. The seizure is initiated by delivering a current (32 mA at 6 Hz for three seconds) to the animal through the corneal electrodes. The resulting psychomotor seizure is usually characterized by a minimal clonic phase followed by stereotyped, automatistic behaviors. This response is analogous to the aura of human patients with partial seizures.

[4] = system: focal seizures in hippocampal kindled rats; assay: Hippocampal kindling model; assay type: in vivo, Sprague-Dawley rats; set-up: key to Racine Seizure Score ± SEM: Racine stage 1 to 5; conditions: for Afterdischarge Duration ± SEM / Racine Seizure Score ± SEM: rats, 100 mg/kg, n=7
Source text: Hippocampal Kindling Model
The hippocampal kindling model is an experimental seizure model used to simulate focal seizures. This model evaluates the capacity of a compound to affect both the expression and acquisition of focal seizures. In addition, kindled seizures provide a methodology for studying complex brain networks that may contribute to the spread and generalizations of seizures from a focus. The hippocampal kindling model has the advantage of being one of the only kindling models that can evaluate the temporal effects of an agent in a single animal. For this assessment, bipolar electrodes are surgically implanted in the ventral hippocampus of adult male Sprague-Dawley rats (275-300 g) under ketamine-xylazine anesthesia. Following a one-week recovery period, stage five behavioral seizures are induced by stimulating the rat 12 times per day with 50 Hz, 10 s train of 1 ms biphasic 200 μA pulses delivered every 30 min for six hours on alternating days. After five stimulus days, the animal has had 60 stimulations. A drug free control period with supramaximal stimulations is used to verify the stability of a stage five generalized seizure before the anticonvulsant activity of a drug is measured.
This screen is used to measure the capacity of the drug to prevent the expression of focal seizures. […] The animal is exposed to an initial stimulation of 20 μA; the stimulation is increased in 10 μA increments every one-two minutes until an afterdischarge is recorded. After the stability of the stage five seizure is established, the drug candidate is administered to the rats via intraperitoneal injection 15 minutes after the last control stimulation. Starting with the first dose, the anticonvulsant activity of the test agent is measured every thirty minutes for four hours. Following each stimulation, Racine seizure scores and afterdischarge durations are compared to control values to quantify the anti-convulsant activity of the agent. The Racine seizure scores vary from stage 1 to 5. The stages are characterized according to the following criteria: Stage 1—mouth and facial clonus, Stage 2—stage 1 and head nodding, Stage 3—stage 2 and forelimb clonus, Stage 4—stage 3 and rearing, Stage 5—stage 4 and repeated rearing and falling. Since a single animal is used, each rat serves as its own control.
4,4′-Thiodianiline was used in the rat hippocampal kindled rats to screen to measure its anticonvulsant potential. Doses of 12.5, 25, 50 and 100 mg/kg were evaluated at a minimum of seven time points (n=7 for each dose and each time point). […] After oral administration of the test compound stimulation, the Racine seizure scores and afterdischarge durations were measured and are shown below. The Racine seizure scores dropped from between a stage 4 and stage 5 seizure for control measurements to between a stage 1 and stage 2 seizure after treatment with 4,4′-thiodianiline.

[5] = system: rats; assay: Minimal neurotoxicity in rats, positional sense and gait and stance tests; assay type: in vivo; conditions: 1 hour (time to peak effect) after oral administration
Source text: If the rat experiences neurological toxicity, it will not be able to quickly lift its leg quickly back to a normal position.
In the gait and stance test, neurotoxicity is indicated by a circular or zigzag gait after administration of the test compound. In addition, ataxia, abnormal spread of the legs, abnormal posture, tremor hyperactivity, lack of exploratory behavior, somnolence, stupor, or catalepsy can indicate neurotoxicity.

[6] = system: mice; assay: Minimal neurotoxicity in mice, rotorod test; conditions: up to four hours after dosing, doses as high as 300 mg/kg
Description: In mice, the test compound is administered at doses of 30, and 100 mg/kg prior to evaluation in the toxicity screens. The mice are tested at 0.5 hours and 4 hours after intraperitoneal administration of the test compound.
Toxicity in mice weighing between 18 and 25.5 g is assessed using the standardized rotorod test [9]. For each compound tested, a minimum of 18 animals are evaluated for neurotoxicity. Control mice can maintain their equilibrium for an extended period of time when they are placed on a 6-rpm rotation rod. Neurologically impaired animals cannot maintain equilibrium for one minute in each of three successive trials.

[7] = 30 mg/kg i.p., 0.5 h after administration
[8] = 100 mg/kg i.p., 0.5 h after administration
[9] = 100 mg/kg i.p., 4.0 h after administration

SMILES: Nc1ccc(Sc2ccc(N)cc2)cc1 [4,4′-thiodianiline]
- Percentage of mice in which the test compound prevented MES-induced seizure [1, 7]: 0%
- Percentage of mice in which the test compound prevented MES-induced seizure ([1]; 30 mg/kg i.p., 4.0 h after administration): 0%
- Percentage of mice in which the test compound prevented MES-induced seizure [1, 8]: 66%
- Percentage of mice in which the test compound prevented MES-induced seizure [1, 9]: 100%
- Percentage of mice in which the test compound prevented MES-induced seizure ([1]; 300 mg/kg i.p., 0.5 h after administration): 100%
- Percentage of mice in which the test compound prevented MES-induced seizure ([1]; 300 mg/kg i.p., 4.0 h after administration): 100%
- ED50 ([1]; Mus musculus, ip, 0.5 h, read-out: ED50 (MES)): 53.4 ± 14.9 mg/kg
- Percentage of rats in which the test compound prevented MES-induced seizure ([2]; 0.25 h after administration): 100%
- Percentage of rats in which the test compound prevented MES-induced seizure ([2]; 0.5 h after administration): 100%
- Percentage of rats in which the test compound prevented MES-induced seizure ([2]; 1.0 h after administration): 100%
- Percentage of rats in which the test compound prevented MES-induced seizure ([2]; 2.0 h after administration): 100%
- Percentage of rats in which the test compound prevented MES-induced seizure ([2]; 4.0 h after administration): 100%
- ED50 ([2]; Rattus norvegicus, po, read-out: ED50 required to inhibit MES-induced seizure): 6.6 ± 5.07 mg/kg
- Time to Peak Effect ([2]; rat, oral administration, MES test): 1 h
- Percentage of mice in which the test compound prevented seizure in the 6 Hz test ([3]; 30 mg/kg i.p., 0.25 h after administration): 0%
- Percentage of mice in which the test compound prevented seizure in the 6 Hz test [3, 7]: 25%
- Percentage of mice in which the test compound prevented seizure in the 6 Hz test ([3]; 30 mg/kg i.p., 1.0 h after administration): 25%
- Percentage of mice in which the test compound prevented seizure in the 6 Hz test ([3]; 30 mg/kg i.p., 2.0 h after administration): 25%
- Percentage of mice in which the test compound prevented seizure in the 6 Hz test ([3]; 80 mg/kg i.p., 0.25 h after administration): 100%
- Percentage of mice in which the test compound prevented seizure in the 6 Hz test ([3]; 80 mg/kg i.p., 0.5 h after administration): 100%
- Percentage of mice in which the test compound prevented seizure in the 6 Hz test ([3]; 80 mg/kg i.p., 1.0 h after administration): 100%
- Percentage of mice in which the test compound prevented seizure in the 6 Hz test ([3]; 80 mg/kg i.p., 2.0 h after administration): 75%
- Percentage of mice in which the test compound prevented seizure in the 6 Hz test ([3]; 80 mg/kg i.p., 4.0 h after administration): 0%
- Percentage of mice in which the test compound prevented seizure in the 6 Hz test ([3]; 100 mg/kg i.p., 0.25 h after administration): 100%
- Percentage of mice in which the test compound prevented seizure in the 6 Hz test [3, 8]: 100%
- Percentage of mice in which the test compound prevented seizure in the 6 Hz test ([3]; 100 mg/kg i.p., 1.0 h after administration): 100%
- Percentage of mice in which the test compound prevented seizure in the 6 Hz test ([3]; 100 mg/kg i.p., 2.0 h after administration): 100%
- Percentage of mice in which the test compound prevented seizure in the 6 Hz test [3, 9]: 0%
- ED50 ([3]; Mus musculus, ip, read-out: ED50 (6 Hz seizures)): 30 to 80 mg/kg
- ED50 ([4]; Rattus norvegicus, hippocampal kindled rats, from doses of 12.5, 25, 50 and 100 mg/kg, read-out: ED50, dose required to prevent the expression of focal seizures): 51.4 mg/kg
- Afterdischarge Duration ± SEM ([4]; 15 min): 19.14 ± 9.58 s
- Racine Seizure Score ± SEM ([4]; 15 min): 1.43 ± 0.81
- Afterdischarge Duration ± SEM ([4]; 45 min): 25.29 ± 13.71 s
- Racine Seizure Score ± SEM ([4]; 45 min): 1.29 ± 0.84
- Afterdischarge Duration ± SEM ([4]; 75 min): 24.86 ± 11.43 s
- Racine Seizure Score ± SEM ([4]; 75 min): 0.71 ± 0.57
- Afterdischarge Duration ± SEM ([4]; 105 min): 33.29 ± 14.17 s
- Racine Seizure Score ± SEM ([4]; 105 min): 1.29 ± 0.64
- Afterdischarge Duration ± SEM ([4]; 135 min): 34.71 ± 14.35 s
- Racine Seizure Score ± SEM ([4]; 135 min): 1.57 ± 0.81
- Afterdischarge Duration ± SEM ([4]; 165 min): 57.43 ± 18.17 s
- Racine Seizure Score ± SEM ([4]; 165 min): 1.57 ± 0.65
- Afterdischarge Duration ± SEM ([4]; 195 min): 55.29 ± 18.19 s
- Racine Seizure Score ± SEM ([4]; 195 min): 1.57 ± 0.69
- Afterdischarge Duration ± SEM ([4]; 225 min): 71.29 ± 18.99 s
- Racine Seizure Score ± SEM ([4]; 225 min): 1.86 ± 0.70
- Afterdischarge Duration ± SEM ([4]; 255 min): 65.43 ± 17.91 s
- Racine Seizure Score ± SEM ([4]; 255 min): 1.86 ± 0.63
- ED50 for toxicity relative to ED50 for anti-convulsant activity [5]: ~60 times
- acute neurotoxicity as measured by the rotorod test [6]: No acute neurotoxicity was observed
